The assay deals with HDM-specific T cells expanded from PBMCs of HDM-allergic individuals. As to the kind of experiment: T cell reactivity of peptides: IFN/IL-5 ELISPOT on in vitro expanded HDM-specific T cells. In kind it is cell-based, human. Particulars: for SFC/donor: individual peptides 10 μg/mL; for % responder: percentage of donors that produced a response against the peptide, 10 μg/mL. The method, then:
Each sequence of an “L” cluster was aligned separately using the MEGA software tool with ClustalW. Fifteen-mer peptides overlapping by 10 amino acids were generated and the last 15-mer peptide was added when the sequence length was not divisible by 5, 14,783 unique peptides remained.
HLA class II binding predictions optimized for global coverage were performed for the seven class II alleles (HLA-DRB1*03:01, HLA-DRB1*07:01, HLA-DRB1*15:01, HLA-DRB3*01:01, HLA-DRB3*02:02, HLA-DRB4*01:01 and HLA-DRB5*01:01) using the standalone version of the IEDB class II binding prediction tool. The median consensus percentile rank was estimated from the consensus percentile ranks for the seven alleles. Further, peptides with more than ten overlapping amino acids, which appeared because several occurrences of some sequence regions were repeated multiple times in the same sequence, were eliminated (e.g. “[…]” was repeated seven times in one sequence.) Variant peptides were also removed, retaining the better peptide based on the median consensus percentile rank and conservation among the sequences within its respective cluster. Peptides with median consensus percentile rank ≤10.0 and conserved in ≥35% of sequences in the same cluster were finally selected, also including additional selected peptides chosen to maximize DRB1 allele coverage, for a grand total of 2,589 peptides.
Peptides were purchased from Mimotopes (Clayton, Victoria, Australia) or A and A (San Diego, Calif.) as crude material on a small (1-mg) scale. Individual peptides were resuspended in DMSO at a final concentration of 40 mg/mL. Peptide “megapools” of 30-65 peptides/pool were generated. Following lyophilization, each pool was reconstituted in DMSO so that each peptide was present at a concentration of 4 mg/mL. To facilitate deconvolution of positive megapools, each megapool was further broken down in 2-6 “mesopools” (259 mesopools in total), each containing 8-14 peptides. Each mesopool was then deconvoluted to identify individual positive peptides. To avoid dimerization and polymerization of peptides by intra- and intermolecular disulfide bond formation between cysteine residues, this amino acid were in some instances substituted by a serine residue in the peptides. Such peptides are herein marked with an asterisk (*).
PBMCs from European HDM-allergic individuals were recruited in the Copenhagen region (defined by clinical history of allergy to house dust mite and specific IgE to group 1 and group 2 major allergens from Der p and/or Der f and with measured specific IgE (CAP) >0.7 kU/L towards Der p/f 1 or Der p/f 2. In addition, PBMCs from 10 US HDM-allergic individuals were recruited in San Diego (defined by Der p extract IgE titers greater than 0.35 kUA/L). PBMCs were isolated from whole blood by density gradient centrifugation according to manufacturers' instructions (Ficoll-Hypaque, Amersham Biosciences, Uppsala, Sweden). Der p- and Der f-specific extract IgE titers were determined using the ImmunoCAP system (Thermo Fisher, Uppsala, Sweden). In a separate series of experiments, pooled plasma from 10 European and 10 American HDM atopic individuals from the San Diego region, respectively, was utilized to run 2D immunoblots to elucidate IgE and IgG reactivity towards the proteins, which had at least one peptide with positive T cell response.
HDM-specific T cells were expanded in vitro. Briefly, PBMCs from HDM-allergic individuals were stimulated with HDM extract (5 μg/mL) and expanded over 14-17 days with IL-2 (added every 3 days). Cells were harvested on day 14, restimulated with HDM extract (5 μg/mL), individual peptides (10 μg/mL) or peptide pools (5 μg/mL) and screened for […]/IL-5-production by ELISPOT. Criteria for positivity were 100 or 20 spot forming cells (SFCs) per 10^6 PBMCs for peptide pools or single peptides, respectively, p<0.05, and a stimulation index >2.

On to “137 (HDNTELMKTKDFLLI; Immunogenic fragment) [compound 137]”, for which the SFC/donor is reported as 41 SFC/donor and the “% responder” value was 10%.

For “109 (HWNGDILSDWSSMRW; Immunogenic fragment) [compound 109]”, the SFC/donor is 88 SFC/donor and the “% responder” value stood at 25%.

On to “58 (ITRLREAMGVMQHHD; Immunogenic fragment) [compound 58]”, for which the SFC/donor turned out to be 8 SFC/donor and the “% responder” value was 5%.

Consider “94 (FTNLNTTYTRNRAVG; Immunogenic fragment) [compound 94]”, for which the SFC/donor amounted to 94 SFC/donor and the “% responder” value worked out at 15%.

For the substance “YITFTEPFMINQLAA (Immunogenic fragment) [Peptide 180, fragment of A0023 Der f/p]”, the SFC/donor turned out to be 29 SFC/donor and the “% responder” value is 10%.

“73 (TLEQWHSKRYLLRLE; Immunogenic fragment) [compound 73]”: the SFC/donor was 4 SFC/donor and the “% responder” value is reported as 5%.

For the substance “65 (LISIPEFVRKIPGRK; Immunogenic fragment) [compound 65]”, the SFC/donor was determined as 6 SFC/donor and the “% responder” value came out at 5%.

Turning to “146 (LLVIDTELGRLGMQI; Immunogenic fragment) [compound 146]”, the SFC/donor is reported as 54 SFC/donor and the “% responder” value worked out at 20%.

For the substance “142 (DKKFLFNTAVLFDRQ; Immunogenic fragment) [compound 142]”, the SFC/donor turned out to be 22 SFC/donor and the “% responder” value is 10%.

“76 (FKSFEIIAVEELTLG; Immunogenic fragment) [compound 76]”: the SFC/donor is 8 SFC/donor and the “% responder” value is 5%.

“118 (SSLQYRYRFLAHLYT; Immunogenic fragment) [compound 118]”: the SFC/donor is listed as 37 SFC/donor and the “% responder” value is 20%.

As to “71 (LLRLEHFYQRFEDPS; Immunogenic fragment) [compound 71]”, the SFC/donor is recorded as 8 SFC/donor and the “% responder” value came out at 5%.

As to “130 (SIIFDGKPYYQFIYT; Immunogenic fragment) [compound 130]”, the SFC/donor turned out to be 55 SFC/donor and the “% responder” value stood at 5%.

In the case of “100 (TLRHKTLCMTARHYN; Immunogenic fragment) [compound 100]”, the SFC/donor was 12 SFC/donor and the “% responder” value is reported as 10%.

Turning to “60 (HVAFNYAKMLDSAML; Immunogenic fragment) [compound 60]”, the SFC/donor was 75 SFC/donor and the “% responder” value is reported as 5%.

As to “107 (NEALKTTLNKRPFII; Immunogenic fragment) [compound 107]”, the SFC/donor stood at 9 SFC/donor and the “% responder” value is listed as 5%.

For the substance “120 (AHLYTLFYHVHKNGG; Immunogenic fragment) [compound 120]”, the SFC/donor is recorded as 8 SFC/donor and the “% responder” value stood at 5%.

With “55 (KFMMASEDLLKKHYA; Immunogenic fragment) [compound 55]”, the SFC/donor is on record as 5 SFC/donor and the “% responder” value was found to be 5%.

As to “150 (ELNSRFVYAKLRGAF; Immunogenic fragment) [compound 150]”, the SFC/donor is recorded as 21 SFC/donor and the “% responder” value amounted to 5%.

With “144 (RYHKMHLFGEMTMNI; Immunogenic fragment) [compound 144]”, the SFC/donor worked out at 10 SFC/donor and the “% responder” value was determined as 10%.

In the case of “66 (IVQEVHQQFDSFVGQ; Immunogenic fragment) [compound 66]”, the SFC/donor is given as 6 SFC/donor and the “% responder” value is recorded as 5%.

As for “48 (EQYISGVILFDETVY; Immunogenic fragment) [compound 48]”, the SFC/donor was found to be 326 SFC/donor and the “% responder” value was determined as 20%.

With “52 (EIIRRFEAKGFKLVA; Immunogenic fragment) [compound 52]”, the SFC/donor is recorded as 40 SFC/donor and the “% responder” value worked out at 5%.

“80 (NLSSKVLPNLNVPYC; Immunogenic fragment) [compound 80]”: the SFC/donor turned out to be 4 SFC/donor and the “% responder” value was found to be 5%.

In the case of “LGTLRNGATNHFLSK (Immunogenic fragment) [Peptide 183, fragment of A0023 Der f]”, the SFC/donor was determined as 163 SFC/donor and the “% responder” value is on record as 20%.

Regarding “148 (TWWFDEAPMLSSSQY; Immunogenic fragment) [compound 148]”, the SFC/donor is listed as 21 SFC/donor and the “% responder” value is reported as 10%.

Take “125 (FFRSGSIIPIQGPQN; Immunogenic fragment) [compound 125]”: the SFC/donor came out at 5 SFC/donor and the “% responder” value is 5%.

As to “82 (YIGYKIEKHSKNLIQ; Immunogenic fragment) [compound 82]”, the SFC/donor is given as 4 SFC/donor and the “% responder” value is reported as 5%.

Regarding “115 (AFYSFVRNHNTDNAI; Immunogenic fragment) [compound 115]”, the SFC/donor turned out to be 15 SFC/donor and the “% responder” value was determined as 20%.

Consider “145 (PPKPELLVIDTELGR; Immunogenic fragment) [compound 145]”, for which the SFC/donor is reported as 228 SFC/donor and the “% responder” value is on record as 30%.

For the substance “79 (GNDLKNLSSKVLPNL; Immunogenic fragment) [compound 79]”, the SFC/donor is listed as 5 SFC/donor and the “% responder” value was 5%.

Turning to “99 (AEYHKTIAFDGAWLD; Immunogenic fragment) [compound 99]”, the SFC/donor is recorded as 24 SFC/donor and the “% responder” value came out at 15%.

For “126 (TQNINFINILGVPKL; Immunogenic fragment) [compound 126]”, the SFC/donor stood at 72 SFC/donor and the “% responder” value is recorded as 15%.

For the substance “119 (RYRFLAHLYTLFYHV; Immunogenic fragment) [compound 119]”, the SFC/donor turned out to be 158 SFC/donor and the “% responder” value is recorded as 10%.

With “57 (WEGLNAVKTGRVMLG; Immunogenic fragment) [compound 57]”, the SFC/donor is 5 SFC/donor and the “% responder” value is given as 5%.

With “75 (SLRHLFKSFEIIAVE; Immunogenic fragment) [compound 75]”, the SFC/donor came to 6 SFC/donor and the “% responder” value is reported as 5%.

In the case of “121 (DIETQFMWGDSMLIA; Immunogenic fragment) [compound 121]”, the SFC/donor was 8 SFC/donor and the “% responder” value was determined as 5%.

With “117 (IRAARSSLQYRYRFL; Immunogenic fragment) [compound 117]”, the SFC/donor came to 20 SFC/donor and the “% responder” value came out at 20%.

As to “63 (EFCPYLNISSCPSTE; Immunogenic fragment) [compound 63]”, the SFC/donor amounted to 7 SFC/donor and the “% responder” value was found to be 10%.

For the substance “127 (SQHLGYQTNQSIIIL; Immunogenic fragment) [compound 127]”, the SFC/donor is 7 SFC/donor and the “% responder” value is given as 10%.

For “113 (LCIRWYQLGAFYSFA; Immunogenic fragment) [compound 113]”, the SFC/donor is recorded as 40 SFC/donor and the “% responder” value is recorded as 15%.

As for “54 (FKLVAMKFMMASEDL; Immunogenic fragment) [compound 54]”, the SFC/donor was 6 SFC/donor and the “% responder” value came out at 5%.

Turning to “51 (RGIVGEIIRRFEAKG; Immunogenic fragment) [compound 51]”, the SFC/donor turned out to be 5 SFC/donor and the “% responder” value is given as 5%.

The values are drawn from patent US10556936B2, “Immunogenic proteins and fragments thereof from allergenic mites” (ALK-ABELLÓ A/S, priority 2016, dated 2020).
